The test concerns the target T1, mUSP18 (Mus musculus, UniProt Q9WTV6).
T1 construct: (46-368); His-tag (N); made in house
T1 sequence (Q9WTV6 46-368): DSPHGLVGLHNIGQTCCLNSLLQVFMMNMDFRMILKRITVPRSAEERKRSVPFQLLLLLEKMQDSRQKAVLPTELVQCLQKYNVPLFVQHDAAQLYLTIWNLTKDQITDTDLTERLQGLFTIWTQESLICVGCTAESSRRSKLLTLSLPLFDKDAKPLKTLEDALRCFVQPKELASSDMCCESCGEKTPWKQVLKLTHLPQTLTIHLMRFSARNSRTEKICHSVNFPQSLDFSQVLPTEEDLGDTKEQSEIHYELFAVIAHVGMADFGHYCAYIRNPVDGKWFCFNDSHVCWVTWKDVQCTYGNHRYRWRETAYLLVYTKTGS
As to the kind of experiment: High-throughput screening, ISG15ct-RhoMP, single dose 1.25 µM. Type of test: biochemical, murine. To be noted: mUSP18 %inhibition.

Setting [1] is: carboxylic acid (CA) building block alone, read-out: %inh CA only.
Setting [2] is: carboxylic acid (CA) with coupling reagents DIC/HOBT, read-out: %inh CA + DIC/HOBT.

Where two headings read alike, the source gives them in different places.

`O=C(O)c1cnn(-c2ccc(C(F)(F)F)cc2)c1` [CA396]: the inhibition at 1.25 µM reads like this: under setting [1], -5.61%; under setting [2], 1.41%.
Consider `Cc1c[nH]c(=O)n1-c1cccc(C(=O)O)c1` [CA397], for which the inhibition at 1.25 µM under setting [1] was -10.2% and the inhibition at 1.25 µM under setting [2] was -2.23%.
The corresponding values for `Cc1ccc(Oc2ccc(C(=O)O)nc2)cc1` [CA398] are -2.93% and 2.57%.
The corresponding values for `O=C(O)c1ccc(OCc2cccnc2)cc1` [CA399] are -10.1% and -0.24%.
The corresponding values for `CCn1cc([1C@@H]2OCCC[1C@H]2C(=O)O)cn1` [CA400] are 8.86% and 4.12%.
As to `O=C(O)c1ccc(C#Cc2ccccc2)cc1` [CA401], the inhibition at 1.25 µM is 8.14% under setting [1] and -4.27% under setting [2].
The like results for `O=C(O)C1CCN1C1CCCC1` (stereo not drawn) [CA402] were, in that order, 0.37% and -9.76%.
The like results for `O=C(O)c1cc(S(=O)(=O)Nc2nccs2)ccc1F` [CA403] were, in that order, 0.9% and -6.97%.
For `O=C(O)C1CCCN1C(=O)C1CC1` (stereo not drawn) [CA404], the inhibition at 1.25 µM is -4.12% under setting [1] and -12.2% under setting [2].
The corresponding values for `O=C(O)C(OC1CCOCC1)c1ccccc1` (stereo not drawn) [CA405] are -0.68% and -7.73%.
For the compound `O=C(O)CCn1ccc(C(=O)N2CCCC2)n1` [CA406], the inhibition at 1.25 µM is, setting by setting: under setting [1], -2.83%; under setting [2], -11.1%.
Take `O=C(O)c1ccccc1OCc1cccs1` [CA407]: the inhibition at 1.25 µM is, setting by setting: under setting [1], -5.56%; under setting [2], 33.9%.
The corresponding values for `O=C(O)c1c[nH]nc1-c1ccncc1` [CA408] are -2.77% and -3.75%.
The corresponding values for `COc1ccccc1N1CC(C(=O)O)CCC1=O` (stereo not drawn) [CA409] are -0.2% and -6.22%.
The like results for `Cn1nccc1[1C@@H]1C[1C@H]1C(=O)O` [CA410] were, in that order, -4.36% and -9.17%.
As for `O=C(O)C1CCCN(c2ncccn2)C1` (stereo not drawn) [CA411], the inhibition at 1.25 µM under setting [1] was -4.05% and the inhibition at 1.25 µM under setting [2] was -6.74%.
The like results for `O=C(O)c1ccc(-c2ccncc2)[nH]c1=O` [CA412] were, in that order, -8.86% and -7.67%.
The like results for `Cc1onc(C(=O)O)c1CN1CCN(C)CC1` [CA413] were, in that order, -6.3% and -3.44%.
The like results for `O=C(O)c1cccn1Cc1ccccn1` [CA414] were, in that order, -4.22% and -9%.
With `O=C(O)CCn1nc(C(F)(F)F)cc1C1CC1` [CA415], the inhibition at 1.25 µM reads like this: under setting [1], -5.69%; under setting [2], -4.3%.
Regarding `Cc1csc(-c2cccc(C(=O)O)c2)n1` [CA416], the inhibition at 1.25 µM was -3.85% under setting [1] and -4.32% under setting [2].
Turning to `O=C(O)c1cc(COc2ccc(F)cc2F)on1` [CA417], the inhibition at 1.25 µM under setting [1] was -8.45% and the inhibition at 1.25 µM under setting [2] was -7.97%.
The corresponding values for `CC(=O)N1CCN(S(=O)(=O)c2cccc(C(=O)O)c2)CC1` [CA418] are -5% and -2.55%.
The corresponding values for `Cn1cc(-c2cc(C(=O)O)n[nH]2)cn1` [CA419] are -7.23% and -1.62%.
With `Cc1cc(C)n(-c2ccc(Cl)c(C(=O)O)n2)n1` [CA420], the inhibition at 1.25 µM was -5.16% under setting [1] and -0.88% under setting [2].
The like results for `O=C(O)Cc1csc(NS(=O)(=O)c2ccccc2)n1` [CA421] were, in that order, -4.79% and -0.58%.
The corresponding values for `O=C(O)c1cccc(S(=O)(=O)N2CCOCC2)c1` [CA422] are -10.9% and -0.86%.
The corresponding values for `O=C(O)Cc1coc(-c2cccs2)n1` [CA423] are 8.99% and -4.85%.
For the compound `COc1ccc(S(=O)(=O)N(CCC(=O)O)Cc2ccccc2)cc1` [CA424], the inhibition at 1.25 µM reads like this: under setting [1], 3.84%; under setting [2], -12.6%.
The like results for `Cc1oc(-c2ccsc2)nc1CC(=O)O` [CA425] were, in that order, 2.13% and -7.19%.
In the case of `Cc1ccc(C=CS(=O)(=O)N2CCC(C(=O)O)CC2)cc1` [CA426], the inhibition at 1.25 µM runs as follows: under setting [1], -0.61%; under setting [2], -6.87%.
The corresponding values for `O=C(O)c1cccnc1Oc1ccc(Cl)cc1Cl` [CA427] are -5.52% and -6.68%.
The like results for `O=C(O)Cc1csc(-c2ccccc2)n1` [CA428] were, in that order, -0.27% and -5.62%.
The corresponding values for `Cc1ccccc1-n1cc(C(=O)O)cn1` [CA429] are -5.24% and 4.15%.
Take `O=C(O)c1cccnc1-n1cccn1` [CA430]: the inhibition at 1.25 µM runs as follows: under setting [1], -3.79%; under setting [2], 17%.
The like results for `CCn1nc(C(C)C)cc1C(=O)N1CCCCC1C(=O)O` (stereo not drawn) [CA431] were, in that order, -2.4% and -10.1%.
The like results for `Cn1nc(C2CCC2)cc1C(=O)O` [CA432] were, in that order, -1.28% and -6.37%.
The corresponding values for `O=C(O)c1cccc(Oc2nccs2)c1` [CA433] are -0.99% and -7.69%.
As for `CNS(=O)(=O)c1ccc(-c2ccccc2OC(F)(F)F)c(C(=O)O)c1` [CA434], the inhibition at 1.25 µM was -0.67% under setting [1] and -3.53% under setting [2].
The like results for `O=C(O)Cc1ccc(OCc2ccccn2)cc1` [CA435] were, in that order, -5.3% and -2.79%.
The corresponding values for `O=C(O)c1cc(S(=O)(=O)Nc2cccc(F)c2)ccc1F` [CA436] are -3.43% and -0.67%.
The corresponding values for `O=C(O)c1ncn(-c2ccccc2)n1` [CA437] are -3.12% and 0.58%.
As for `O=C(O)C1CCCN(c2ccc(Cl)nn2)C1` (stereo not drawn) [CA438], the inhibition at 1.25 µM is -7.25% under setting [1] and -2.38% under setting [2].
The corresponding values for `O=C(O)c1cn[nH]c1C1CC1` [CA439] are -3.97% and 20.1%.
With `O=C(O)C1CCCN(c2ncccc2C(F)(F)F)C1` (stereo not drawn) [CA440], the inhibition at 1.25 µM is -5.84% under setting [1] and -2.29% under setting [2].
As for `O=C(O)c1nn(-c2ccccc2)c(=O)[nH]c1=O` [CA441], the inhibition at 1.25 µM by setting is: under setting [1], -3.61%; under setting [2], -0.87%.
The corresponding values for `Cn1cc(-c2nc(C(=O)O)cs2)cn1` [CA442] are -4.05% and -2.36%.
The like results for `O=C(O)c1ncsc1Cc1ccccc1` [CA443] were, in that order, 7.6% and 12%.
`O=C(O)C1CCN(C(=O)N2CCOCC2)CC1` [CA444]: the inhibition at 1.25 µM was -6.76% under setting [1] and -0.57% under setting [2].
The like results for `Cc1n[nH]c(C)c1Cc1ccc(C(=O)O)o1` [CA445] were, in that order, -7.28% and 2.15%.
The corresponding values for `CC1=NN(c2cccc(Br)c2)C(=O)C1CC(=O)O` (stereo not drawn) [CA446] are -10.1% and 26.8%.
The corresponding values for `CCn1ccc(-c2cc(C(=O)O)no2)n1` [CA447] are 9.91% and -2.33%.
With `O=C(O)c1ccc(Cn2ccccc2=O)o1` [CA448], the inhibition at 1.25 µM runs as follows: under setting [1], 5.37%; under setting [2], -5.91%.
For the compound `CC(C)n1nccc1[1C@@H]1OCC[1C@H]1C(=O)O` [CA449], the inhibition at 1.25 µM under setting [1] amounted to 2.37% and the inhibition at 1.25 µM under setting [2] was -9.4%.
The like results for `O=C(O)c1cnc(-c2cccnc2)s1` [CA450] were, in that order, 0.56% and -9.05%.
The like results for `O=C(O)c1ccc(=O)n(C2CC2)c1` [CA451] were, in that order, -1.56% and -6.2%.
The like results for `O=C(O)C1CC(=O)N(OCc2ccccc2)C1` (stereo not drawn) [CA452] were, in that order, -2.07% and -8.76%.
As for `O=C(O)CC1CCN(c2ccc(Cl)nn2)CC1` [CA453], the inhibition at 1.25 µM by setting is: under setting [1], -0.89%; under setting [2], -4.65%.
With `O=C(O)c1cnn(CC2CCC2)c1` [CA454], the inhibition at 1.25 µM was -1.23% under setting [1] and -8.94% under setting [2].
As for `O=C(O)Cc1csc(C2CC2)n1` [CA455], the inhibition at 1.25 µM was 0.84% under setting [1] and -7.57% under setting [2].
The corresponding values for `O=C(O)c1cc(C2CCC2)on1` [CA456] are 1.15% and -2.8%.
For `O=C(O)C(c1ccccc1)n1cccc1` (stereo not drawn) [CA457], the inhibition at 1.25 µM under setting [1] stood at 0.68% and the inhibition at 1.25 µM under setting [2] is -4.48%.
As for `O=C(O)c1nc(N2CCOCC2)ncc1Cl` [CA458], the inhibition at 1.25 µM is 2.77% under setting [1] and -1.69% under setting [2].
As for `O=C(O)C1CCCCN1S(=O)(=O)c1ccc(Br)s1` (stereo not drawn) [CA459], the inhibition at 1.25 µM reads like this: under setting [1], -0.93%; under setting [2], -2.17%.
Turning to `CC(C)c1cc(C(=O)O)n(-c2ccccc2)n1` [CA460], the inhibition at 1.25 µM by setting is: under setting [1], -1.54%; under setting [2], -0.28%.
The corresponding values for `O=C(O)c1ccc(-c2ncon2)cc1` [CA461] are -2.23% and -2.33%.

Source of the values: article PMC12668310, “High‐Throughput Synthesis and Screening of a Cyanimide Library Identifies Selective Inhibitors of ISG15‐Specific Protease mUSP18” (Angewandte Chemie (International Ed. in English), 2025).
